We go through 3 compounds from patent publication US20220347260A1, “Combination of An Agonist Anti-PD-1 Antibody With a GnRH Agonist or Antagonist to Treat Cancer” (Debiopharm International SA, priority 2017, published 2022).

The nature of test [1]: Phase I study Debio 8200-IMM-101, Patient A: serum testosterone levels. The format is in vivo, human. To be noted: baseline Day 1 15.7 nmol/L, castrate range <1.735 nmol/L. On the procedure:
The study involves 3 to 12 treatment cycles (depending on individual responses) of 28 days each. Patients receive triptorelin embonate (pamoate) 3.75 mg one-month formulation i.m. on day 1 of each 28-day cycle and nivolumab (Opdivo®) at 3 mg/kg body weight i.v. (1-hour infusion) on days 1 and 15 of each cycle. On day 1 of each cycle, triptorelin is administered prior to nivolumab. In addition, patients take bicalutamide 50 mg p.o. once daily for 28 days throughout cycle 1 only, to counteract the initial testosterone “flare” induced by triptorelin.
On 12 Jun. 2018 the patient was enrolled in the protocol Debio 8200-IMM-101 and received the first injections of triptorelin -anti-androgen bicalutamide was added for 28 days- and anti-PD-1 molecule nivolumab.
As expected due to triptorelin treatment, the serum testosterone levels of the patient decreased from a baseline (Day 1) level of 15.7 nmol/L on 12 Jun. 2018 to a very low castrate level of 0.6 nmol/L four weeks later 10 Jul. 2018 (Day 29), and have remained in the castrate range (i.e. <1.735 nmol/L) until the last value available to date of 0.69 nmol/L on 29 Oct. 2018 (Day 141).

A further test relates to melanoma. To be noted: melanoma patients in phase II or III trials; in some cases for more than ten years; cited from earlier work.
Test [2] has as its system melanoma metastasis in the pancreas. As to the kind of experiment: Patient A: prior pembrolizumab treatment, tumor response by PET-CT. The format is in vivo, human. As for the experimental part:
A person (at screening on 23 May 2018) […] had been operated on 26 Sep. 2016 for left lung lobectomy for melanoma metastasis of unknown origin. On 21 Aug. 2017, biopsy of PET-CT (Positron emission tomography—computed tomography) detected a new melanoma metastasis in the pancreas. From 27 Sep. 2017 until 13 Mar. 2018 (last administration at Cycle 9) they were treated with anti-PD-1 molecule pembrolizumab. On 12 Dec. […] However, on 30 Mar. […] On 23 May 2018, the size of this unique pancreatic metastasis was 34 mm on CT-scan.

Consider `CC(C)C[C@H](NC(=O)[C@@H](Cc1c[nH]c2ccccc12)NC(=O)[C@H](Cc1ccc(O)cc1)NC(=O)[C@H](CO)NC(=O)[C@H](Cc1c[nH]c2ccccc12)NC(=O)[C@H](Cc1c[nH]cn1)NC(=O)[C@@H]1CCC(=O)N1)C(=O)N[C@@H](CCCNC(=N)N)C(=O)N1CCC[C@H]1C(=O)NCC(N)=O` [triptorelin, pyroGlu-His-Trp-Ser-Tyr-D-Trp-Leu-Arg-Pro-Gly-NH2], for which the serum testosterone level in test [1] (Day 29 (10 Jul. 2018)) was found to be 0.6 nmol/L; in test [1] (Day 141 (29 Oct. 2018)), 0.69 nmol/L. Turning to “Ipilimumab: fully human IgG1 CTLA-4-blocking monoclonal antibody from Bristol-Myers Squibb”, the “durable survival, patients” value with melanoma is recorded as “about 20%”.

“pembrolizumab: humanized IgG4 monoclonal anti-PD-1 antibody from Merck”: the tumor response result is “Partial Response (PR)” in test [2] (12 Dec. 2017, pembrolizumab from 27 Sep. 2017 until 13 Mar. 2018) and “progression (PD)” in test [2] (30 Mar. 2018, PET-CT, after Cycle 9 of pembrolizumab).
